Measured values as given in ChEMBL document CHEMBL3797072, “Discovery of Potent, Selective, and Orally Bioavailable Small-Molecule Modulators of the Mediator Complex-Associated Kinases CDK8 and CDK19” (J Med Chem, 2016).
Converted amounts (≈) assume the structure as drawn.

Tests used:
in vitro [1] = settings: human, microsomes
in vitro [2] = settings: rat, microsomes
in vivo [3] = settings: mouse, plasma
in vivo [4] = settings: Beagle, dog
in vivo [5] = settings: mouse, faeces
in vivo [6] = settings: mouse, faeces; remark: listed apart in the source
in vitro [7] = settings: mouse, microsomes
in vivo [8] = settings: NMRI, mouse
in vivo [9] = settings: mouse, plasma; remark: listed apart in the source
physchem [10] = assay: physchem
in vivo [11] = settings: Wistar, rat
physchem [12] = assay: physchem; remark: listed apart in the source

Row | Structure (SMILES) | clearance (in vivo [3]) [mL/min/kg] | dose excreted (in vivo [5]) [%] | dose excreted (in vivo [6]) [%] | clearance (in vivo [9]) [mL/min/kg] | solubility thermodynamic (physchem [10]) [µg/mL] | other results
1 | Cn1cc(-c2ccc(-c3cncc(Cl)c3N3CCC4(CCNC4=O)CC3)cc2)cn1 | 39 | 9.1 | < 1 | 38.3 | 6 (≈ 14.2 µM) | microsomal CLint (in vitro [1]): 84 µL/min/mg; microsomal CLint (in vitro [2]): 54 µL/min/mg; half-life (in vivo [4]): 42 min; microsomal CLint (in vitro [7]): 141 µL/min/mg; half-life (in vivo [8]): 33 min
2 | CN1c2ccc(-c3cnc(N)c(F)c3N3CCC4(CCNC4=O)CC3)cc2CS1(=O)=O | – | – | – | – | 29 (≈ 65.1 µM) | –
3 | Cn1cc(-c2ccc(-c3cnc(N)c(Cl)c3N3CCC4(CC3)CNC(=O)O4)cc2)cn1 | 43.2 | 17 | < 1 | 47.3 | – | –
4 | Cn1cc(-c2ccc(-c3cnc(N)c(Cl)c3N3CCC4(CCNC4=O)CC3)cc2)cn1 | – | – | – | – | 2 (≈ 4.58 µM) | –
5 | Cn1ncc2cc(-c3cnc(N)c(Cl)c3N3CCC4(CCNC4=O)CC3)ccc21 | – | – | – | – | 40 (≈ 97.3 µM) | half-life (in vivo [4]): 59.4 min; half-life (in vivo [8]): 46.8 min; half-life (in vivo [11]): 66 min
6 | CC(C)(O)Cn1cc(-c2ccc(-c3cnc(N)c(Cl)c3N3CCC4(CCNC4=O)CC3)cc2)cn1 | – | – | – | – | < 1 | –
7 | Cn1cc(-c2ccc(-c3cnc(N)c(C(F)(F)F)c3N3CCC4(CC3)CNC(=O)O4)cc2)cn1 | – | – | – | – | 1 (≈ 2.12 µM) | –
8 | Cn1cc(-c2ccc(-c3cncc(Cl)c3N3CCC4(CC3)NCNC4=O)cc2)cn1 | – | – | – | – | 47 (≈ 111 µM) | –
9 | COCCN1CCCC12CCN(c1c(Cl)cncc1-c1ccc3c(c1)CS(=O)(=O)N3C)CC2 | – | – | – | – | 248 (≈ 505 µM) | –
10 | CN1c2ccc(-c3cnc(N)c(Cl)c3N3CCC4(CC3)CNC(=O)O4)cc2CS1(=O)=O | 68 | 20 | < 1 | 47.5 | – | –
11 | Cn1ncc2cc(-c3cnc(N)c(Cl)c3N3CCC4(CC3)CNC(=O)O4)ccc21 | – | – | – | – | 3 (≈ 7.27 µM) | –
12 | CN1c2ccc(-c3cncc(Cl)c3N3CCC4(CC3)CNC(=O)O4)cc2CS1(=O)=O | 81.5 | 18 | < 1 | 66.7 | 17 (≈ 37.9 µM) | –
13 | Cn1cc(-c2ccc(-c3cncc(Cl)c3N3CCC4(CC3)NC(=O)CNC4=O)cc2)cn1 | 73.8 | 67 | 24 | 37 | – | –
14 | Cn1cc(-c2ccc(-c3cncc(Cl)c3N3CCC4(CC3)CNC(=O)O4)cc2)cn1 | – | – | – | – | 3 (≈ 7.08 µM) | –
15 | CC(C)n1ncc2cc(-c3cnc(N)c(Cl)c3N3CCC4(CCNC4=O)CC3)ccc21 | – | – | – | – | – | microsomal CLint (in vitro [1]): 202 µL/min/mg; microsomal CLint (in vitro [2]): 139 µL/min/mg; microsomal CLint (in vitro [7]): 202 µL/min/mg; solubility kinetic (physchem [12]): 126 µM (≈ 55.3 µg/mL)
